Assay results taken from publication PMC5126668 (PeerJ, 2016).
Where “and” joins values, the source holds several entries; their conditions need not be identical. Equal values may be shown once. Read-outs that look alike come from different tables or passages of the source.

How the values were obtained:
BAK metabolism in HLMs = experiment: Metabolic elimination of BAK in HLMs and its inhibition by GA (HPLC); assay type: in vitro ADME, human; details: for Remaining percentage of BAK (%) / remaining of BAK (%), single samples: BAK 10 µM; for Remaining percentage of BAK (%): HLMs 0.5 g/L, mean; for remaining of BAK (%), single samples: t=30 min
Method: The HLM mixtures were prepared on ice. […] At the end of the incubation (0 or 30 min), 200 µL of methanol-acetonitrile (1:1, V:V) solution containing tanshinone II A (internal standard) was added to terminate the reaction. The mixtures were then vortexed for 2 min followed by centrifugation at 14,500 rpm for 10 min. A 10 µL aliquot of the supernatant was then injected for HPLC analysis. […] RContr is the percentage of BAK remaining in the BAK group.

[1] = BAK exposure in rat liver and kidney 24 h after dosing; assay type: in vivo, Sprague–Dawley rats; details: for concentration at 24 h: Sprague-Dawley, po, 200 mg/kg
Method: The liver and kidney tissue were also collected from individual rats 24 h after dosing, weighed and then homogenized in saline solution (0.6 g wet weight/mL) on ice. Subsequently, 10 µL of internal standard solution (tanshinone II A, 10 µg/mL) and 0.3 mL of acetonitrile were added to 0.1 mL of plasma or homogenates, and centrifuged at 13,300 rpm for 15 min after 2 min of vortexing. The supernatant was reconstituted in 100 µL of mobile phase after drying under 40 °C nitrogen, the mixture then was vortexed for 5 min and centrifuged at 13,300 rpm for 15 min. Finally, 20 µL of supernatant was injected for HPLC analysis. […] The mobile phase consisted of methanol and water with 0.1% formic acid (89:11, v/v) and was supplied at a flow rate of 0.8 mL/min. The detection wavelength was set to 262 nm. […] The recovery was >93%.

HK-2 cells = experiment: HK-2 cell viability, MTT assay, with or without co-cultured HLMs; assay type: cell-based, human; details: BAK combined with GA
Method: (§1) HK-2 cells obtained from Peking Union Medical College were maintained in D/F12 medium containing 10% fetal bovine serum, 2 mM glutamine and 1 × 10^5 U/L penicillin and streptomycin at 37 °C in a 5% CO2 atmosphere. […] The samples containing HLMs were prepared in an ice bath, and three replicates were tested for each dose. In brief, HK-2 cells (100 µL) were seeded at 3 × 10^5cells/mL in 96-well plates. After 12 h, 200 µL of the test compound was added. For the BAK and GA with HLMs group, GA was pre-incubated with NADPH in HLMs for 30 min at 37 °C and then mixed with BAK; for the other groups, all tested compounds except NADPH were mixed, and NADPH was then added to start the metabolic reaction. After 4 h of culture, 100 µL of 0.5 g/L MTT was added, and the cells were cultured for 4 h. Subsequently, 150 µL of 4% isopropanol was added to cells for 15 min at 37 °C, and the absorbance at 570 nm was then read by a microplate reader (Multiskan MK3, Thermo, USA). The relative cell viability (%) was calculated as follows: Mean Absorbance of Sample/Mean Absorbance of Vehicle Control × 100%.

[2] = as above; assay type: cell-based, human; details: human; for viability at 4 h, 30 µM: BAK 30 µM; for viability at 4 h, 75 µM: BAK 75 µM; for viability at 4 h, 90 µM: BAK 90 µM; for viability at 4 h, 45 µM: BAK 45 µM; for viability at 4 h, 60 µM: BAK 60 µM
Method: as §1

[3] = with HLM, raw data, read-out: cell viability(%), single values
[4] = HK-2 cells co-cultured with HLMs (0.16 g/L), with HLMs 0.16 g/L, 4 h, mean, read-out: HK-2 Cell viability (%)
[5] = HK-2 cells, without HLMs, without HLMs, 4 h, mean, read-out: HK-2 Cell viability (%)

30min BAK metabolic percentage (%) (BAK metabolism in HLMs; BAK 10 µM alone, HLMs, 30 min): 36.51%
Remaining percentage of BAK (%) (BAK metabolism in HLMs; GA 0 µM, 30 min): 63.49 ± 6.05% and 63.49%
Remaining percentage of BAK (%) (BAK metabolism in HLMs; GA 12.5 µM, 30 min): 71.60 ± 6.40% and 71.60%
remaining of BAK (%), single samples (BAK metabolism in HLMs; GA 12.5 µM): 64.61% and 73.02% and 77.17%
Remaining percentage of BAK (%) (BAK metabolism in HLMs; GA 62.5 µM, 30 min): 80.10 ± 6.81 % and 80.10%
remaining of BAK (%), single samples (BAK metabolism in HLMs; GA 62.5 µM): 85.51% and 72.46% and 82.34%
remaining of BAK (%), single samples (BAK metabolism in HLMs; GA 93.75 µM): 73.93% and 93.16% and 104.23%
Remaining percentage of BAK (%) (BAK metabolism in HLMs; GA 125.0 µM, 30 min): 97.24 ± 1.46 % and 97.24%
remaining of BAK (%), single samples (BAK metabolism in HLMs; GA 125 µM): 98.81% and 95.94% and 96.96%
remaining of BAK (%), single samples (BAK metabolism in HLMs; no GA, HLM 0.5 mg/ml): 56.87% and 64.87% and 68.72%
BAK in kidney relative to liver ([1]; 24 h after administration): 1.37- to 1.54 fold
concentration at 24 h ([1]; kidney, 24 h after single oral dose, read-out: Exposure of BAK, Kidney, mean): 755 ng/g
concentration at 24 h ([1]; kidney, 24 h after single oral dose, read-out: Exposure of BAK, Kidney, single rats): 661 ng/g
concentration at 24 h ([1]; liver, 24 h after single oral dose, read-out: Exposure of BAK, Liver, mean): 548 ng/g
concentration at 24 h ([1]; liver, 24 h after single oral dose, read-out: Exposure of BAK, Liver, single rats): 531 ng/g
SMILES: C=C[C@@](C)(/C=C/c1ccc(O)cc1)CCC=C(C)C [BAK, Bakuchiol]
Exposure of BAK, Kidney, single rats ([1]; 24 h after single oral dose): 0.7466 µg/g and 0.7844 µg/g and 0.7813 µg/g and 0.8035 µg/g
Exposure of BAK, Liver, single rats ([1]; 24 h after single oral dose): 0.5617 µg/g and 0.5502 µg/g and 0.5630 µg/g and 0.5314 µg/g
decreases in viability of HK-2 cells (HK-2 cells): 25∼40%
viability at 4 h, 30 µM [2, 3]: 98.8%
viability at 4 h, 75 µM [2, 3]: 108%
viability at 4 h, 90 µM [2, 3]: 88.2%
viability at 4 h, 30 µM [2, 4]: 104 ± 4.32%
viability at 4 h, 45 µM ([2]; HK-2 cells co-cultured with HLMs (0.16 g/L), with HLMs 0.16 g/L, 4 h, mean): 105 ± 9.39%
viability at 4 h, 60 µM [2, 4]: 101 ± 9.76%
viability at 4 h, 75 µM [2, 4]: 109 ± 3.19%
viability at 4 h, 90 µM [2, 4]: 92.5 ± 2.07%
viability at 4 h, 60 µM ([2]; HK-2 cells, without HLM, raw data, read-out: cell viability(%), single values): 80.5%
viability at 4 h, 30 µM [2, 5]: 97.7 ± 10.7%
viability at 4 h, 45 µM ([2]; HK-2 cells, without HLMs, 4 h, mean): 84.6 ± 13.8%
viability at 4 h, 60 µM [2, 5]: 77.5 ± 4.69%
viability at 4 h, 75 µM [2, 5]: 55 ± 11.3%
viability at 4 h, 90 µM [2, 5]: 46.3 ± 12.5%
